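Exposure lasted 48 hours, with cells grown in 96-well plates and compounds tested at five concentrations. GI50 = concentration required for 50% inhibition of growth.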 Calls of active or inactive are those of the source. No stated cut-off is given here; in the data, active = GI50 up to about 1.1 µM and inactive = higher.
How the values were obtained:
Assay in all cases: inhibition of tumour cell growth, NCI panel, 48 h
[1] = tested on: TK-10
[2] = tested on: SNB-19
[3] = tested on: NCI-H23
[4] = tested on: SF-539
[5] = tested on: SF-295
[6] = tested on: UACC-62
[7] = tested on: Hs-578T
[8] = tested on: SR
[9] = tested on: HOP-92
[10] = tested on: SK-MEL-28
[11] = tested on: PC-3
[12] = tested on: HOP-62
[13] = tested on: SN12C
[14] = tested on: NCI/ADR-RES
[15] = tested on: NCI-H522
[16] = tested on: HT-29
[17] = tested on: K562
[18] = tested on: SK-MEL-2
[19] = tested on: COLO 205
[20] = tested on: LOX IMVI

Compound | GI50 [1] | GI50 [2] | GI50 [3] | GI50 [4] | GI50 [5] | GI50 [6] | GI50 [7] | GI50 [8] | GI50 [9] | GI50 [10] | GI50 [11] | GI50 [12] | GI50 [13] | GI50 [14] | GI50 [15] | GI50 [16] | GI50 [17] | GI50 [18] | GI50 [19] | GI50 [20]
CCn1c(CCl)nc2c1C(=O)c1ccccc1C2=O | 2.51 µM (inactive) | 1.87 µM (inactive) | 1.4 µM (inactive) | 2.23 µM (inactive) | 1.88 µM (inactive) | 1.28 µM (inactive) | 2.29 µM (inactive) | 0.401 µM (active) | 2.14 µM (inactive) | 1.76 µM (inactive) | 1.91 µM (inactive) | 2.42 µM (inactive) | 1.6 µM (inactive) | 2.48 µM (inactive) | 0.292 µM (active) | 1.78 µM (inactive) | 2.36 µM (inactive) | – | – | –
CN(C)CCCN1c2ccccc2CCc2cc([N+](=O)[O-])ccc21 | 14.6 µM (inactive) | 16.9 µM (inactive) | 19 µM (inactive) | 15.1 µM (inactive) | 14.5 µM (inactive) | 14.3 µM (inactive) | 16.2 µM (inactive) | 18.7 µM (inactive) | – | – | 16.7 µM (inactive) | 15.8 µM (inactive) | 16.1 µM (inactive) | 17.2 µM (inactive) | 15.7 µM (inactive) | 15.3 µM (inactive) | 16.9 µM (inactive) | 20 µM (inactive) | 16.4 µM (inactive) | 14.4 µM (inactive)
CC(C)c1ccc2nc3ccc(C(=O)NCCN4CCN(c5ccccc5)CC4)cn3c(=O)c2c1 | 3.56 µM (inactive) | > 100 µM (inactive) | 7.73 µM (inactive) | – | 2.22 µM (inactive) | 3.87 µM (inactive) | 4.93 µM (inactive) | 2.51 µM (inactive) | – | 2.82 µM (inactive) | 2.37 µM (inactive) | 6.31 µM (inactive) | – | 3.57 µM (inactive) | 5.58 µM (inactive) | 4.06 µM (inactive) | 2.45 µM (inactive) | – | 3.33 µM (inactive) | –
COC(=O)[C@H]1C[C@H]1NC(=O)C(CC(=O)OCc1ccccc1)NC(=O)OCc1ccccc1 (some centres undefined) | 74.6 µM (inactive) | > 100 µM (inactive) | 41.8 µM (inactive) | 97.5 µM (inactive) | 50.7 µM (inactive) | – | > 100 µM (inactive) | 29.8 µM (inactive) | – | 53.7 µM (inactive) | 35.3 µM (inactive) | > 10 µM (inactive) | > 100 µM (inactive) | 28.3 µM (inactive) | 40.8 µM (inactive) | 39 µM (inactive) | 59.7 µM (inactive) | 18.6 µM (inactive) | 24.4 µM (inactive) | 83 µM (inactive)
COC(=O)[C@@H]1C[C@]2(Br)c3ccccc3N(S(=O)(=O)c3ccccc3)[C@@H]2N1C(=O)OC | > 100 µM (inactive) | > 100 µM (inactive) | 37.3 µM (inactive) | > 100 µM (inactive) | – | 62.1 µM (inactive) | 83.9 µM (inactive) | > 100 µM (inactive) | > 100 µM (inactive) | > 100 µM (inactive) | > 100 µM (inactive) | > 100 µM (inactive) | > 100 µM (inactive) | > 100 µM (inactive) | > 100 µM (inactive) | > 100 µM (inactive) | > 100 µM (inactive) | 74.5 µM (inactive) | – | –
CCOC(=O)c1cnc(-n2[nH]c3c(c2=O)CCCC3)[nH]c1=O | > 100 µM (inactive) | > 100 µM (inactive) | 72.8 µM (inactive) | 48.1 µM (inactive) | 62.7 µM (inactive) | 29.6 µM (inactive) | > 100 µM (inactive) | 13.3 µM (inactive) | 0.859 µM (active) | 20.9 µM (inactive) | 57.4 µM (inactive) | – | 52.5 µM (inactive) | 34.8 µM (inactive) | 52.4 µM (inactive) | 40.4 µM (inactive) | 20.7 µM (inactive) | 42.6 µM (inactive) | 26.2 µM (inactive) | –
CC1(C)CCC(C)(C)C1C(=O)NC(O)C(=O)O (centres undefined) | > 100 µM (inactive) | > 100 µM (inactive) | > 10 µM (inactive) | > 100 µM (inactive) | – | > 100 µM (inactive) | > 100 µM (inactive) | > 100 µM (inactive) | 2.43 µM (inactive) | > 100 µM (inactive) | > 100 µM (inactive) | > 100 µM (inactive) | > 100 µM (inactive) | > 100 µM (inactive) | – | – | > 100 µM (inactive) | > 100 µM (inactive) | > 100 µM (inactive) | > 100 µM (inactive)
O=C(NCCCCNCCCNC(=O)C(F)(F)F)C(F)(F)F | > 100 µM (inactive) | > 100 µM (inactive) | > 100 µM (inactive) | > 100 µM (inactive) | 32.6 µM (inactive) | > 100 µM (inactive) | > 100 µM (inactive) | > 100 µM (inactive) | > 100 µM (inactive) | > 100 µM (inactive) | > 100 µM (inactive) | > 100 µM (inactive) | > 100 µM (inactive) | > 100 µM (inactive) | > 100 µM (inactive) | > 100 µM (inactive) | > 100 µM (inactive) | > 100 µM (inactive) | > 100 µM (inactive) | –
